Experimental data reported in patent publication US11739098B2 (BRISTOL-MYERS SQUIBB COMPANY, priority 2017, dated 2023).

Key:
Type in all cases: cell-based
human TLR7 = biological target: T1, human TLR7 (Homo sapiens, UniProt Q9NYK1); experiment: TLR7 inhibition reporter assay (HEK-Blue cells, SEAP reporter, gardiquimod stimulation); conditions: HEK-Blue cells overexpressing human TLR7, SEAP reporter, gardiquimod 7.5 μM
T1 construct: host or cells: HEK-Blue cells (HEK293-derived reporter line)
T1 sequence (Q9NYK1 27-1049): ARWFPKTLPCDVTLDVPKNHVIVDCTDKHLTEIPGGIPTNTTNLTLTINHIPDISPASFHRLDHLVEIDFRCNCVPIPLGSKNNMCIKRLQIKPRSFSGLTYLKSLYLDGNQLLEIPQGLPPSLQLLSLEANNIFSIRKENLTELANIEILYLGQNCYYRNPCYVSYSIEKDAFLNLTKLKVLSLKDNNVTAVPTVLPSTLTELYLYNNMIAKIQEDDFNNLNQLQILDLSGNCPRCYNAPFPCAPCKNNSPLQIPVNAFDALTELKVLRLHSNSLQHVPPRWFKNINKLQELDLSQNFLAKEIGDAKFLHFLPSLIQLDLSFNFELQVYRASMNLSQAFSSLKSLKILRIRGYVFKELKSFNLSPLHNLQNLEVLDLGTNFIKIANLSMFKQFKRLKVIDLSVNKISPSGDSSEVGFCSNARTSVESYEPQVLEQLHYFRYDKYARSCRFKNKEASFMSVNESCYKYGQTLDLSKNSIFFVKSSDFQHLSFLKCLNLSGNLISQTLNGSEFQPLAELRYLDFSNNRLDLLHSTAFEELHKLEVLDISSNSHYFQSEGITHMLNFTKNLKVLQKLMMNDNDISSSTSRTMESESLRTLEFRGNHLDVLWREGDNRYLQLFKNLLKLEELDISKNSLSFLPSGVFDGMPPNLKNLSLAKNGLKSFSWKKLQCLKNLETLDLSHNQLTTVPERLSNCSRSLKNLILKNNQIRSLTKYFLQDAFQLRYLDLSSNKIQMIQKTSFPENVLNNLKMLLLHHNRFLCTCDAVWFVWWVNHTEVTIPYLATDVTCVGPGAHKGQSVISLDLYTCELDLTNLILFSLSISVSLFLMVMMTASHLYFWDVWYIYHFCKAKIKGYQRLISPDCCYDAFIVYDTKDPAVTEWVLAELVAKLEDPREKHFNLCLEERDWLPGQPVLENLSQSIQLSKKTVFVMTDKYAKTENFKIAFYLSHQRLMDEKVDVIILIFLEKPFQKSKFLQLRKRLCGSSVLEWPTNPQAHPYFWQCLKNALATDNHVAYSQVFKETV
Outline: (§1)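 HEK-Blue cells overexpressing human TLR7, TLR8 or TLR9 (NF-κB/AP-1-driven SEAP) pre-treated 30 min at room temperature with compound (0.05 nM–50 μM), then stimulated with gardiquimod 7.5 μM (TLR7), R848 15.9 μM (TLR8) or ODN2006 5 nM (TLR9). SEAP read colorimetrically after 22 h at 37 °C; % inhibition calculated.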

human TLR8 = biological target: T2, human TLR8 (Homo sapiens, UniProt Q9NR97); experiment: TLR8 inhibition reporter assay (HEK-Blue cells, SEAP reporter, R848 stimulation); conditions: HEK-Blue cells overexpressing human TLR8, SEAP reporter, R848 15.9 μM
T2 construct: host or cells: HEK-Blue cells (HEK293-derived reporter line)
T2 sequence (Q9NR97 27-1041): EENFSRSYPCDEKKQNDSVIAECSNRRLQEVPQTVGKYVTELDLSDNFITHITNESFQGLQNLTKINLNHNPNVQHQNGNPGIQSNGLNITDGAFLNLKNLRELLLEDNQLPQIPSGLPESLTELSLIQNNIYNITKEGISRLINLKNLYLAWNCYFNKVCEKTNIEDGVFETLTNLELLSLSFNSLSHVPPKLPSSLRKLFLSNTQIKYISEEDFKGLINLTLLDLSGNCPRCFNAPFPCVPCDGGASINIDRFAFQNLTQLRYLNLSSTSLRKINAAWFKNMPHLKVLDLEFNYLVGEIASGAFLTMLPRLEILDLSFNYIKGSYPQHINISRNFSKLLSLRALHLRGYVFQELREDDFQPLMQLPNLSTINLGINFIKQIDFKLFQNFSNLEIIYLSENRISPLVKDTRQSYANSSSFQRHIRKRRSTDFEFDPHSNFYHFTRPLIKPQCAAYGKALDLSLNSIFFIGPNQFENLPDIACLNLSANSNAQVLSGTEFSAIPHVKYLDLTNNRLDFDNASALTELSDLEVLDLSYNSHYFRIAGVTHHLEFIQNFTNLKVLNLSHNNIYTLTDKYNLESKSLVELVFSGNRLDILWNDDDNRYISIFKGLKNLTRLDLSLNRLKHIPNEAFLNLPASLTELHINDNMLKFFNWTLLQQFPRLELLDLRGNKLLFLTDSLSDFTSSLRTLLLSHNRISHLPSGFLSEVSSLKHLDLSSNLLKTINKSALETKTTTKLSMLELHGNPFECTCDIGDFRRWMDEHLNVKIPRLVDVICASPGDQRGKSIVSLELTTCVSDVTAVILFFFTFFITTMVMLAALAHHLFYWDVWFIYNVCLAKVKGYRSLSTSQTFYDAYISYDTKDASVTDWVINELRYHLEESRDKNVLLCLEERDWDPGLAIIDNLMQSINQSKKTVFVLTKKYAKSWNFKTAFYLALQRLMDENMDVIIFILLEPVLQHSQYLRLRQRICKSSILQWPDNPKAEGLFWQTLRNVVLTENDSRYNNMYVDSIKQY
Outline: as §1

human TLR9 = biological target: T3, human TLR9 (Homo sapiens, UniProt Q9NR96); experiment: TLR9 inhibition reporter assay (HEK-Blue cells, SEAP reporter, ODN2006 stimulation); conditions: HEK-Blue cells overexpressing human TLR9, SEAP reporter, ODN2006 5 nM
T3 construct: host or cells: HEK-Blue cells (HEK293-derived reporter line)
T3 sequence (Q9NR96 26-1032): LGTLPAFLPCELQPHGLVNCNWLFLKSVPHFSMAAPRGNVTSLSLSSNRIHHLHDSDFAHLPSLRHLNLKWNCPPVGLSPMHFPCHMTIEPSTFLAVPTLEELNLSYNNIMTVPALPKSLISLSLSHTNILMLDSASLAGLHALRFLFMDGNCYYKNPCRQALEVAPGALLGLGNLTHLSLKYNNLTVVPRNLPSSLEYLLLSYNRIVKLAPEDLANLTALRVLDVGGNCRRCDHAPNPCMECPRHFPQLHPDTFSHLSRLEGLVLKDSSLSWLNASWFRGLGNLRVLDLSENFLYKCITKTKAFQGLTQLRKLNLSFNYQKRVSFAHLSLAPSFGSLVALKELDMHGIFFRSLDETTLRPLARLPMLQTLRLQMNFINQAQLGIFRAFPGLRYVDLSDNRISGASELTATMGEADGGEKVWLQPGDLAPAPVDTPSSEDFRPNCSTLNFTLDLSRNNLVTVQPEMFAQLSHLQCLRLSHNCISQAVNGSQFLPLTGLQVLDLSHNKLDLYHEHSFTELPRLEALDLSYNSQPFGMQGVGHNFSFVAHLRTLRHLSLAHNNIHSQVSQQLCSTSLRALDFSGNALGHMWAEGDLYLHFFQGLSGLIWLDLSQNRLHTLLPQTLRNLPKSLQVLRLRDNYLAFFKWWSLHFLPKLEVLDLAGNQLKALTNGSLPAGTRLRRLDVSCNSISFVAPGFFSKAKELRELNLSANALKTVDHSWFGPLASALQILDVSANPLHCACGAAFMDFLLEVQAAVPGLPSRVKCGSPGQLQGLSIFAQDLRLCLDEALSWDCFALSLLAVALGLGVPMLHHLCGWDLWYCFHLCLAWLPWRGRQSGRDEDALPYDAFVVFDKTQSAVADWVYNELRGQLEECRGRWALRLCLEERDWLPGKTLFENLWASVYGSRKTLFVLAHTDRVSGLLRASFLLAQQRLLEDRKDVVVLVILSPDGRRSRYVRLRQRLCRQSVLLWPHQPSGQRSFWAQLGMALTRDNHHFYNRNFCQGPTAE
Outline: as §1

SMILES	IC50 (human TLR7)	IC50 (human TLR8)	IC50 (human TLR9)
CC(C)c1c(-c2ccnc3c2ccn3S(C)(=O)=O)[nH]c2ccc(C3CCN(C(=O)CN(C)C)CC3)cc12 [Example 450, 2-(dimethylamino)-1-(4-(3-isopropyl-2-(1-(methylsulfonyl)-1H-pyrrolo[2,3-b]pyridin-4-yl)-1H-indol-5-yl)piperidin-1-yl)ethanone]	1000 to 50000 nM	< 100 nM	100 to 1000 nM
CC(C)c1c(-c2ccnc3[nH]ncc23)[nH]c2ccc(C3CCN(C(=O)c4cn[nH]c4)CC3)cc12 [Example 610, (4-(3-isopropyl-2-(1H-pyrazolo[3,4-b]pyridin-4-yl)-1H-indol-5-yl)piperidin-1-yl)(1H-pyrazol-4-yl)methanone]	100 to 1000 nM	100 to 1000 nM	1000 to 50000 nM
Cc1cc(-c2[nH]c3ccc(C4CCN(Cc5ncn(C)n5)CC4)cc3c2C(C)C)cn2nncc12 [Example 881, 6-(3-isopropyl-5-(1-((1-methyl-1H-1,2,4-triazol-3-yl)methyl)piperidin-4-yl)-1H-indol-2-yl)-4-methyl-[1,2,3]triazolo[1,5-a]pyridine]	1000 to 50000 nM	100 to 1000 nM	1000 to 50000 nM
Cc1nc2cc(-c3[nH]c4ccc(C5CCN(C6COC6)CC5)cc4c3C(C)C)cc(C)c2o1 [Example 709, 5-(3-isopropyl-5-(1-(oxetan-3-yl)piperidin-4-yl)-1H-indol-2-yl)-2,7-dimethylbenzo[d]oxazole]	100 to 1000 nM	1000 to 50000 nM	1000 to 50000 nM
Cc1c(-c2ncnn3cccc23)[nH]c2ccc(C3CCN(C4CCN(C(C)C)CC4)CC3)cc12 [Example 806, 4-(5-(1′-isopropyl-[1,4′-bipiperidin]-4-yl)-3-methyl-1H-indol-2-yl)pyrrolo[2,1-f][1,2,4]triazine]	1000 to 50000 nM	< 100 nM	< 100 nM
CCc1c(-c2ccnc3[nH]ncc23)[nH]c2ccc(C3CCN(C(=O)CNC)CC3)cc12 [Example 462, 1-(4-(3-ethyl-2-(1H-pyrazolo [3,4-b]pyridin-4-yl)-1H-indol-5-yl)piperidin-1-yl)-2-(methylamino)ethan-1-one]	< 100 nM	< 100 nM	1000 to 50000 nM
CC(C)c1c(-c2cc(CO)c3nnnn3c2)[nH]c2ccc(C3CCN(C4COC4)CC3)cc12 [Example 738, (6-(3-isopropyl-5-(1-(oxetan-3-yl)piperidin-4-yl)-1H-indol-2-yl)tetrazolo[1,5-a]pyridin-8-yl)methanol]	< 100 nM	< 100 nM	1000 to 50000 nM
CC(C)c1c(-c2ccnc3[nH]ncc23)[nH]c2ccc(C3CCN(Cc4cnc5ccccc5c4)CC3)cc12 [Example 895, 3-((4-(3-isopropyl-2-(1H-pyrazolo[3,4-b]pyridin-4-yl)-1H-indol-5-yl)piperidin-1-yl)methyl)quinoline]	100 to 1000 nM	< 100 nM	1000 to 50000 nM
Cc1cc(-c2[nH]c3ccc(C4CCN(C(=O)CN(C)C5CC5)CC4)cc3c2C(C)C)cn2nnnc12 [Example 483, 2-(cyclopropyl(methyl)amino)-1-(4-(3-isopropyl-2-(8-methyltetrazolo[1,5-a]pyridin-6-yl)-1H-indol-5-yl)piperidin-1-yl)ethan-1-one]	< 100 nM	< 100 nM	1000 to 50000 nM

The next lines start with the values.

IC50 (human TLR7)	IC50 (human TLR8)	IC50 (human TLR9)	SMILES
< 100 nM	< 100 nM	1000 to 50000 nM	Cc1ccc(-c2[nH]c3ccc(C4CCN(CC(=O)N(C)C)CC4)cc3c2C(C)C)c2ncnn12 [Example 385, 2-(4-(3-isopropyl-2-(5-methyl-[1,2,4]triazolo[1,5-a]pyridin-8-yl)-1H-indol-5-yl)piperidin-1-yl)-N,N-dimethylacetamide]
< 100 nM	< 100 nM	1000 to 50000 nM	CC(C)c1c(-c2ccc3ncnn3n2)[nH]c2ccc(C3CCN(C4CCOCC4)CC3)cc12 [Example 683, 6-(3-isopropyl-5-(1-(tetrahydro-2H-pyran-4-yl)piperidin-4-yl)-1H-indol-2-yl)-[1,2,4]triazolo[1,5-b]pyridazine]
< 100 nM	< 100 nM	1000 to 50000 nM	Cc1cnc2[nH]ccc2c1-c1[nH]c2ccc(C3CCNCC3)cc2c1C(C)C [Example 247, 4-(3-isopropyl-5-(piperidin-4-yl)-1H-indol-2-yl)-5-methyl-1H-pyrrolo[2,3-b]pyridine]
< 100 nM	< 100 nM	1000 to 50000 nM	CC(C)c1c(-c2cnc3c(cnn3C)c2)[nH]c2ccc(C3CCN(CC(=O)N(C)C)CC3)cc12 [Example 367, 2-(4-(3-isopropyl-2-(1-methyl-1H-pyrazolo[3,4-b]pyridin-5-yl)-1H-indol-5-yl)piperidin-1-yl)-N,N-dimethylacetamide]
100 to 1000 nM	1000 to 50000 nM	100 to 1000 nM	Cc1cn2c(C)cc(-c3[nH]c4ccc(C5CCN(CC(=O)N(C)C)CC5)cc4c3C(C)C)cc2n1 [Example 353, 2-(4-(2-(2,5-dimethylimidazo[1,2-a]pyridin-7-yl)-3-isopropyl-1H-indol-5-yl)piperidin-1-yl)-N,N-dimethylacetamide]
